Values joined by “and” are separate entries in the source; they are usually repeats but may differ in a detail not shown here. Identical values can stand only once. “Also recorded” adds a separate entry of the source.
Assays:
[1] = Safety, overall study population (adverse events, ophthalmic examination, IOP, iris color); format: in vivo, human
Experimental: Safety measures included adverse events (AEs), ophthalmic examination (ophthalmoscopy [dilated], biomicroscopy, IOP, iris color assessment, and BCVA). AEs were monitored throughout the study by the investigator.
The 12-month data were the primary focus of the safety evaluation. Safety data were summarized with descriptive statistics (n, or frequency distributions [counts or percentages]). Biomicroscopic examinations and assessments of iris color, IOP, and BCVA were performed for each subject at screening/baseline and months 1, 2, 4, 6, 8, and 12 (or early termination prior to month 12); ophthalmoscopic examinations (dilated) were performed at screening/baseline and months 6 and 12 (or early termination prior to month 12). Two IOP measurements were taken for each eye at each visit; a third measurement was taken if the difference between the first 2 measurements was more than 2 mm Hg. The average or median IOP was determined in the event that 2 or 3 measurements were made, respectively. The IOP value analyzed at each visit was the average IOP of the subject's 2 eyes. Change and percent change from baseline in IOP were summarized by descriptive statistics. Between-group comparison will be performed using the 1-way analysis of variance.
Iris color assessments were performed using a 10-category subjective classification: blue, blue-gray, blue/gray-brown, gray, green, green-brown, hazel, brown, dark brown, and other.

[2] = system: eyelashes of subjects with chemotherapy-induced hypotrichosis; experiment: GEA / ESQ Domain 2 responder analysis, 1-year clinical study, chemotherapy-induced hypotrichosis; format: in vivo, human
Description: The full 12-month study consisted of 2 distinct 6-month treatment periods, treatment period 1 (TP1) and treatment period 2 (TP2). Eligible post-chemotherapy subjects were randomly assigned in a 3:1 ratio to receive bimatoprost or vehicle for TP1. In TP2, the subjects were either maintained on or switched to bimatoprost treatment. The primary efficacy endpoint was the proportion of treatment responders at month 4 based on a composite endpoint, defined by: a) at least a 1-grade improvement from baseline in the GEA score, and b) at least a 3-point improvement from baseline in the total score for Domain 2 of the ESQ. The GEA is an investigator assessment of eyelash prominence and the ESQ score is patients own perception of their eyelashes. A one-year, multicenter, randomized, double-masked, vehicle-controlled study. Adult post-chemotherapy and idiopathic eyelash hypotrichosis subjects were enrolled based on their score of 1 or 2 on a four point ordinal Global Eyelash Assessment (GEA) scale, and in addition having a low score on a PRO measure associated with 'psychological impact' of the condition, a domain-2 of the Eyelash Satisfaction Questionnaire (ESQ). The study involved two treatment periods of six months each. In the first treatment period, subjects for both populations were randomized 3:1 for QD bimatoprost: vehicle treatment. In the second 6-month treatment period, all subjects were moved to bimatoprost treatment, except for a group of bimatoprost treated idiopathic hypotrichosis subjects (n=55) who were switched to vehicle to investigate the effect of drug discontinuation. The study included 9 visits over the 12-month treatment period. The primary end point was the proportion of responders within each treatment group based on a composite measure of GEA and ESQ Domain-2 (investigator assessed eyelash prominence and subject's assessment of 'psychological impact' related to eyelashes) at month-4. This multicenter, double-masked, randomized, parallel-group study included two 6-month treatment periods. Subjects with idiopathic hypotrichosis were randomized to 3 treatment groups: 1) treatment period 1 (TP1) and TP2: bimatoprost; 2) TP1: bimatoprost; TP2: vehicle; and 3) TP1: vehicle; TP2: bimatoprost. Subjects with chemotherapy-induced hypotrichosis were randomized to 2 treatment groups: 1) TP1: bimatoprost or vehicle; and 2) TP2: bimatoprost. The primary endpoint was a composite of at least a 1-grade improvement in investigator-assessed Global Eyelash Assessment (GEA), and at least a 3-point improvement in subject-reported Eyelash Satisfaction Questionnaire (ESQ) Domain 2 (self-perceived confidence, attractiveness, and professionalism) at month 4. Secondary measures included digitally assessed eyelash characteristics (i.e., eyelash length, fullness, and darkness). Idiopathic hypotrichosis subjects were randomized to 3 treatment arms in a 2:1:1 ratio: bimatoprost during both treatment periods; vehicle in TP1 and bimatoprost in TP2; and bimatoprost in TP1 and vehicle in TP2. Chemotherapy-induced hypotrichosis subjects were randomized in a 3:1 ratio to receive bimatoprost during both treatment periods or vehicle in TP1 followed by bimatoprost in TP2. Male or female subjects at least 18 years of age who met these criteria were eligible for inclusion in the study: a score of 1 or 2 on the clinician-graded global eyelash assessment (“GEA”); a score of 1 (very much disagree) or 2 (disagree) on each of 3 items (16 [confidence], 19 [attractiveness], and 18 [professionalism]) on the subject-assessed eyelash satisfaction questionnaire (“esq”); best-corrected visual acuity (“bcva”) score equivalent to a […] acuity of 20/100 or better in each eye; and intraocular pressure (“iop”) 20 mm hg or less in each eye. […]

[3] = overall population during bimatoprost treatment periods
[4] = subjects treated with bimatoprost, 10-category scale
[5] = postchemotherapy, Month 4, listed as Bimatoprost
[6] = postchemotherapy, Month 4, listed as bimatoprost
[7] = postchemotherapy, Month 12, bimatoprost throughout

## CCNC(=O)CCC/C=C\C[C@@H]1[C@@H](/C=C/[C@@H](O)CCc2ccccc2)[C@H](O)C[C@@H]1O [Bim 0.03%, bimatoprost]
[1]; about 2 months after discontinuation of bimatoprost and initiation of vehicle, mild
  1-category change in iris hyperpigmentation reported as an AE: 1 subject
[1]; any time point, any group
  Greatest magnitude of mean change from baseline IOP: less than 2 mm Hg
[1]; bimatoprost 0.03% followed by vehicle (6-month treatment period)
  Subjects with biomicroscopy and ophthalmoscopy findings of at least a 2-severity grade increase from baseline: 5.0%
[1]; bimatoprost during both treatment periods (12-month treatment period)
  Subjects with biomicroscopy and ophthalmoscopy findings of at least a 2-severity grade increase from baseline: 4.2%
[1]; both subpopulations, 12-month study
  Drug-related serious adverse events: No drug-related serious adverse events were reported; also recorded: no serious AEs attributed to study treatment
[1]; [3]
  Conjunctival hyperaemia: 12.1%
  Erythema: 4.2%
  Eyelid pruritus: 4.7%
  Punctuate keratitis: 5.6%
[1]; [4]
  1- to 2-category iris color change from dark to light: 6 subjects
  1-category iris color change from light to dark: 5 subjects
[1]; vehicle followed by bimatoprost (6-month treatment period)
  Subjects with biomicroscopy and ophthalmoscopy findings of at least a 2-severity grade increase from baseline: 2.4%
[1]; whole study (study treatment), all in idiopathic subpopulation
  Subjects discontinued due to a treatment-related AE: 2.8%
[1]; whole study, mild/moderate
  Enophthalmos leading to treatment discontinuation: 1 subject
[2]; chemotherapy-induced hypotrichosis, duration of the trial
  GEA response rate (FIG. 9): about 80%
[2]; postchemotherapy, Month 1
  Primary composite endpoint responders (≧1-grade GEA and ≧3-point ESQ Domain 2 improvement): (6.3%)
[2]; postchemotherapy, Month 2
  Primary composite endpoint responders (≧1-grade GEA and ≧3-point ESQ Domain 2 improvement): (22.9%)
[2]; postchemotherapy, Month 4
  Responders with ≧1-grade increase in GEA score: 72.9%
  Responders with ≧2-grade increase in GEA score: 36.5%
  Responders with ≧3-point increase in ESQ Domain 2: 40.6%
[2]; [5]
  Primary composite endpoint responders (≧1-grade GEA and ≧3-point ESQ Domain 2 improvement): 37.5%
  Responders with ≧1-grade increase in GEA score: 72.9%
[2]; [6]
  Primary composite endpoint responders (≧1-grade GEA and ≧3-point ESQ Domain 2 improvement): 37.5%
  Responders with ≧1-grade increase in GEA score: > 70% and 72.9%
[2]; postchemotherapy, Month 4, listed as bimatoprost 0.03%
  Primary composite endpoint responders (≧1-grade GEA and ≧3-point ESQ Domain 2 improvement): 37.5%
[2]; postchemotherapy, Month 6
  Responders with ≧1-grade increase in GEA score: 80.2%
  Responders with ≧2-grade increase in GEA score: 45.8%
  Responders with ≧3-point increase in ESQ Domain 2: 47.9%
[2]; postchemotherapy, Month 6, listed as Bim/Bim
  Primary composite endpoint responders (≧1-grade GEA and ≧3-point ESQ Domain 2 improvement): 46.9%
[2]; postchemotherapy, Month 6, listed as Bimatoprost
  Primary composite endpoint responders (≧1-grade GEA and ≧3-point ESQ Domain 2 improvement): 46.9%
[2]; postchemotherapy, Month 6, listed as bimatoprost
  Primary composite endpoint responders (≧1-grade GEA and ≧3-point ESQ Domain 2 improvement): 46.9%
[2]; postchemotherapy, Month 10, Veh/Bim (4 months after starting bimatoprost)
  Responders with ≧2-grade increase in GEA score: 50%
[2]; postchemotherapy, Month 10, bimatoprost throughout
  Primary composite endpoint responders (≧1-grade GEA and ≧3-point ESQ Domain 2 improvement): 54.2%
[2]; postchemotherapy, Month 12, Veh/Bim
  Responders with ≧2-grade increase in GEA score: 52.9%
[2]; postchemotherapy, Month 12, bimatoprost for 12 months (Bim/Bim)
  Primary composite endpoint responders (≧1-grade GEA and ≧3-point ESQ Domain 2 improvement): 61.5%
[2]; [7]
  Responders with ≧1-grade increase in GEA score: 90.6%
  Responders with ≧3-point increase in ESQ Domain 2: 63.5%
[2]; postchemotherapy, Month 12, bimatoprost up to 12 months
  Responders with ≧2-grade increase in GEA score: 57.3%
[2]; postchemotherapy, Month 12, vehicle first 6 months then bimatoprost (Veh/Bim)
  Primary composite endpoint responders (≧1-grade GEA and ≧3-point ESQ Domain 2 improvement): 67.6%
[2]; postchemotherapy, visit not stated (months 4 and 6 discussed)
  ESQ Domain 2 mean change in total score from baseline: 2.8
